Measurements published in patent US20100021954A1, “High capacity nanoparticulate immobilization surface” (priority 2008, published 2010).

Molecular target: T1, streptavidin (Streptomyces avidinii, UniProt P22629)
T1 construct: purchased Sigma-Aldrich S4762
Assay: fl-biotin binding on SA previously immobilized on a PGL coated Epic plate
Settings: SA immobilized at 1.5 micrograms/mL with KH2PO4 on PGL Epic plate (PGL formulation of Example 4A)
Procedure: Materials: Fluorescein-Biotin from Sigma-Aldrich ref. B943 1; 0.01 M PBS (phosphate buffer); 0.0027 M potassium chloride; and 0.137 M sodium chloride pH 7.4; and dimethylsulfoxide (DMSO).
Preparation of 800 nM fl-biotin solution: 16 microliters of 500 μM fl-biotin solution in DMSO were added to 10 mL of PBS and mixed.
Preparation of PBS/DMSO solution: 16 microliters of DMSO were added to […] of PBS.
Each well of the Epic® plate from Examples 7A, 7B, 9, and 10 was rinsed three (3) times with water using an automatic pipettor. Then 75 microliters of the PBS/DMSO solution were added to each well and the alignment of the optical parts was performed. The plate was left undisturbed until reaching a stable baseline. After reaching a stable base line, 75 microliters of the fl-biotin solution were added to each well and mixed continuously for 2 mins using an automatic pipettor. In the course of the mixing, the binding curve was recorded in real time.
Materials: Unlabeled Streptavidine; KH2PO4 from Sigma-Aldrich ref. P5504; and PBS buffer. First, a […] KH2PO4 solution was prepared and its pH was adjusted to 8. Then 75 microliters of this solution were added to each well from a PGL Epic® coated plate prepared using PGL formulation of Example 4A. The alignment of the optical parts was performed and the plate was left undisturbed until a stable baseline was reached. […]

T1 sequence (P22629 25-183): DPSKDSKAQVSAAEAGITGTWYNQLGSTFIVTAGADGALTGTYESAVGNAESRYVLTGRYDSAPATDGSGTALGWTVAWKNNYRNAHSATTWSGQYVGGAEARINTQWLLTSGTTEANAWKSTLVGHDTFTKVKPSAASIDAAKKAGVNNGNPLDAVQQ

In the case of O=C(CCCCCNC(=O)CCCC[C@@H]1SC[C@@H]2NC(=O)N[C@@H]21)NCCCCCNC(=S)Nc1ccc2c(c1)C(=O)OC21c2ccc(O)cc2Oc2cc(O)ccc21 [fl-biotin, Fluorescein-Biotin], the “binding of fl-biotin on immobilized SA” value was “easily observed”.
